Legend:
c-kit mutant D816V = c-kit mutant D816V (Homo sapiens (Human), UniProt P10721, D816V/DEL694-753); experiment: c-Kit mutant D816V biochemical assay (AlphaScreen kinase activity)
Description: The c-kit mutant D816V (or kinase domain thereof) is an active kinase in AlphaScreen. IC50 values are determined with respect to inhibition of c-Kit mutant D816V kinase activity, where inhibition of phosphorylation of a peptide substrate is measured as a function of compound concentration. Compounds to be tested were dissolved in DMSO to a concentration of 30 mM. These were diluted […] of DMSO (4 mM) and 1 μl was added to an assay plate. These were then serially diluted 1:3 (50 μl to […] DMSO) for a total of 8 points. Plates were prepared such that each kinase reaction is […] in 1× kinase buffer (25 mM HEPES, pH 7.2, 8 mM MgCl2, 2 mM MnCl2, 50 mM NaCl, 0.01% Brij, 1 mM DTT, 0.01% BSA), 5% DMSO and 10 μM ATP. Substrate was 30 nM biotin-(E4Y)10 (EMD Millipore, Cat#12-440). C-kit mutant D816V kinase was at 0.75 ng per sample. After incubation of the kinase reaction for 30 minutes at room temperature, 5 μl of donor beads (Streptavidin coated beads (Perkin Elmer Life Science) final concentration 7.5 μg/ml) in stop buffer (25 mM Hepes pH 7.5, 100 mM EDTA, 0.01% BSA) was added, the sample was mixed and incubated for 30 minutes at room temperature before adding […] of acceptor beads (PY30 coated beads (Perkin Elmer Life Science) final concentration 7.5 μg/ml) in stop buffer. The samples were incubated for 60 minutes at room temperature and the signal per well was read on EnVision reader. Phosphorylated substrate results in binding of the PY30 antibody and association of the donor and acceptor beads such that signal correlates with kinase activity. The signal vs. compound concentration was used to determine the IC50.
Recombinant c-kit mutant D816V (residues 551-934, kinase insertion domain residues 694-753 deleted) with a 6×-histidine N-terminal tag (SEQ ID NO: 3) was expressed in E. coli Arctic Express (DE3) RIL (Stratagene). Cells were grown in Terrific Broth (TB) media to an OD600 of 0.6 at 37° C. at which temperature was reduced to 10° C., protein was induced with 1.0 mM IPTG for 18 hours and harvested by centrifugation at 8000×g for 30 minutes. Cells were re-suspended in 0.1M KPO4 pH 8.0, 250 mM NaCl, 10% Glycerol, 0.75% NP-40, 25 mM Imidazole, 5 mM BME with 0.2 mg/ml Lysosyme, 2.0 mM PMSF, 25 μg/ml DNAse I, incubated in ice for 30 minutes and lyzed with a cell disruptor (MicroFluidics). The lysate was clarified by centrifugation at 30,000×g for 2 hours. The protein was captured with Talon resin (Clontech). Contaminating proteins were washed off with 25 mM Tris-HCl pH 8.3, 250 mM NaCl, 15% Glycerol, 1% Triton X-100, and protein eluted using 100 mM EDTA. The protein was further purified using Gel Filtration column 26/600 Superdex 300 (GE) in 50 mM Tris-HCl , pH 8.0, 250 mM NaCl, 15% Glycerol, 5 mM BME. The protein was aliquoted and flash-frozen in liquid Nitrogen.

[1] = tested on: BaF3-FL KIT D816V or BaF3-FL KIT V560G/D816V cell line; experiment: Cell-based assays of c-Kit mutant kinase activity (cell proliferation, ATPlite); settings: at least one of the c-kit cell assays of Example 7
Description: The c-Kit mutant D816V inhibitors were assessed using an engineered BaF3-FL KIT D816V or BaF3-FL KIT V560G/D816V cell line. The BaF3-FL KIT D816V cell lines were created by introduction of KIT mutant (D816V) full length constructs that render the cells dependent on the introduced kinase for growth. Inhibitors of c-Kit mutant D816V kinase reduce or eliminate the mediated c-kit mutant D816V kinase activation, resulting in reduced cell proliferation of the BaF3-FL Kit mutant D816V cells. This inhibition is measured by the effect of compound concentration on cell growth to assess IC50 values. BaF3-FL KIT D816V cells were seeded at 1×10^4 cells per well of a 96 well cell culture plate in 50 μl of cell culture medium of RPMI Medium 1× (Invitrogen #11875-093) supplemented with 10% FBS (Invitrogen #10438), 1% Non Essential Amino Acids (Invitrogen #11140), 1% Penicillin Streptomycin (Invitrogen #15140), 1% L-Glutamine (Invitrogen #25030-081). Compounds were dissolved in DMSO at a concentration of 5 mM and were serially diluted 1:3 for a total of eight points and added to the cells to a final maximum concentration of 10 μM in 100 μl cell culture medium (final concentration 0.2% DMSO). Cells were also treated with Dasatinib as a positive control. The cells were incubated at 37° C., 5% CO2 for three days. ATPlite Buffer (Perkin Elmer #6016739) and substrate were equilibrated to room temperature, and enzyme/substrate Recombinant Firefly Luciferase/D-Luciferin was reconstituted. The cell plates were equilibrated to room temperature for 30 minutes, then lysed by addition of 25 μL per well of the ATPlite Reagent. The plate was mixed for 5 minutes on a plate shaker to lyse the cells. The plates were read on a Tecan Safire using Luminescence protocol modified to read 0.1s per well. The luminescence reading assesses the ATP content, which correlates directly with cell number such that the reading as a function of compound concentration is used to determine the IC50 value.
Plasmids P75635 and P75565 were engineered for mammalian cell expression. In both plasmids, full-length human v-kit Hardy-Zuckerman 4 feline sarcoma viral oncogene homolog gene (NCBI accession NM_000222, KIT, residues M1-V976) was subcloned into the pCI-Neo vector (Promega E1841). Plasmid P75635 contains the mutation of residue Aspartic acid 816 to Valine. Plasmid P75565 contains the double mutation of residues Valine 560 to Glycine and Aspartic acid 816 to Valine. The pCI-neo Mammalian Expression Vector carries the human cytomegalovirus (CMV) immediate-early enhancer/promoter region to promote constitutive expression of KIT and contains the neomycin phosphotransferase gene, a selectable marker.
It is understood that the results of these assays may vary as assay conditions are varied. Inhibition levels determined under the conditions described herein represent a relative activity for the compounds tested under the specific conditions employed. The cell based assays are likely to show variability due to the complexity of the system and the sensitivity thereof to any changes in the assay conditions. […] In some instances, the compounds were not tested in all of the assays, or assay results were not valid.

Chain of c-kit mutant D816V (P10721 other isoform, or with tags, fused parts or gaps D816V/del 694-753): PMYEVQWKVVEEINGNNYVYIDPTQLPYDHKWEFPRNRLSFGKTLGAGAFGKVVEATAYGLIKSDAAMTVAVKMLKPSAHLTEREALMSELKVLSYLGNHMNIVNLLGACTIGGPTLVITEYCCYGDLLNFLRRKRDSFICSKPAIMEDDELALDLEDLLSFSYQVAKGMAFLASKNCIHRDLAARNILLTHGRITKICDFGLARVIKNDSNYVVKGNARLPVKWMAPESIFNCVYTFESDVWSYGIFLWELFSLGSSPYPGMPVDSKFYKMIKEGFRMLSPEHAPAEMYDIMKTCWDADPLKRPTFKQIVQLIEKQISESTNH

Structure (SMILES) | IC50 (c-kit mutant D816V) | IC50 [1]
COc1cc(-c2cc3c(N4CCC(c5nc(C)c(-c6ccc(F)cc6)[nH]5)CC4)ncnc3[nH]2)ccn1 [P-3007, 4-[4-[5-(4-fluorophenyl)-4-methyl-1H-imidazol-2-yl]-1-piperidyl]-6-(2-methoxy-4-pyridyl)-7H-pyrrolo[2,3-d]pyrimidine] | 0.0001 to 1 µM | < 10000 nM
COc1cc(-c2cc3c(N4CCC(c5nc(C6CC6)c(-c6ccccc6)[nH]5)CC4)ncnc3[nH]2)ccn1 [P-3008, 4-[4-(4-cyclopropyl-5-phenyl-1H-imidazol-2-yl)-1-piperidyl]-6-(2-methoxy-4-pyridyl)-7H-pyrrolo[2,3-d]pyrimidine] | 0.0001 to 1 µM | < 10000 nM
Fc1ccc(-c2cc3c(N4CCC(c5nc(C6CC6)c(-c6ccccc6)[nH]5)CC4)ncnc3[nH]2)cc1 [P-3009, 4-[4-(4-cyclopropyl-5-phenyl-1H-imidazol-2-yl)-1-piperidyl]-6-(4-fluorophenyl)-7H-pyrrolo[2,3-d]pyrimidine] | 0.0001 to 1 µM | < 10000 nM
N#Cc1ccc(-c2cc3c(N4CCC(c5nc(C6CC6)c(-c6ccccc6)[nH]5)CC4)ncnc3[nH]2)cc1 [P-3010, 4-[4-[4-(4-cyclopropyl-5-phenyl-1H-imidazol-2-yl)-1-piperidyl]-7H-pyrrolo[2,3-d]pyrimidin-6-yl]benzonitrile] | 0.0001 to 1 µM | < 10000 nM
Cc1nc(C2CCN(c3ncnc4[nH]c(-c5ccc(F)cc5)cc34)CC2)[nH]c1-c1cccc(OC(F)(F)F)c1 [P-3011, 6-(4-fluorophenyl)-4-[4-[4-methyl-5-[3-(trifluoromethoxy)phenyl]-1H-imidazol-2-yl]-1-piperidyl]-7H-pyrrolo[2,3-d]pyrimidine] | 0.0001 to 1 µM | < 10000 nM
CCOc1cc(-c2[nH]c(C3CCN(c4ncnc5[nH]c(-c6ccc(C#N)cc6)cc45)CC3)nc2C)ccc1C [P-3095, 4-[4-[4-[5-(3-ethoxy-4-methyl-phenyl)-4-methyl-1H-imidazol-2-yl]-1-piperidyl]-7H-pyrrolo[2,3-d]pyrimidin-6-yl]benzonitrile] | 0.0001 to 1 µM | < 10000 nM
CCOc1cc(-c2[nH]c(C3CCN(c4ncnc5[nH]c(-c6ccnc(OC)c6)cc45)CC3)nc2C)ccc1C [P-3096, 4-[4-[5-(3-ethoxy-4-methyl-phenyl)-4-methyl-1H-imidazol-2-yl]-1-piperidyl]-6-(2-methoxy-4-pyridyl)-7H-pyrrolo[2,3-d]pyrimidine] | 0.0001 to 1 µM | < 10000 nM
Cc1nc(C2CCN(c3ncnc4[nH]c(-c5ccnc(C(F)(F)F)c5)cc34)CC2)[nH]c1-c1ccccc1 [P-3097, 4-[4-(4-methyl-5-phenyl-1H-imidazol-2-yl)-1-piperidyl]-6-[2-(trifluoromethyl)-4-pyridyl]-7H-pyrrolo[2,3-d]pyrimidine] | 0.0001 to 1 µM | < 10000 nM
Cc1nc(C2CCN(c3ncnc4[nH]c(-c5cccc(C(F)(F)F)c5)cc34)CC2)[nH]c1-c1ccccc1 [P-3098, 4-[4-(4-methyl-5-phenyl-1H-imidazol-2-yl)-1-piperidyl]-6-[3-(trifluoromethyl)phenyl]-7H-pyrrolo[2,3-d]pyrimidine] | 0.0001 to 1 µM | < 10000 nM
CCOc1ccc(-c2[nH]c(C3(C)CCN(c4ncnc5[nH]c(C)cc45)CC3)nc2C)cc1C [P-3099, 4-[4-[5-(4-ethoxy-3-methyl-phenyl)-4-methyl-1H-imidazol-2-yl]-4-methyl-1-piperidyl]-6-methyl-7H-pyrrolo[2,3-d]pyrimidine] | 0.0001 to 1 µM | < 10000 nM
CCc1ccc(-c2[nH]c(C3(C)CCN(c4ncnc5[nH]c(C)cc45)CC3)nc2C)cc1 [P-3101, 4-[4-[5-(4-ethylphenyl)-4-methyl-1H-imidazol-2-yl]-4-methyl-1-piperidyl]-6-methyl-7H-pyrrolo[2,3-d]pyrimidine] | 0.0001 to 1 µM | < 10000 nM
COc1ccc(-c2[nH]c(C3(C)CCN(c4ncnc5[nH]c(C)cc45)CC3)nc2C)cc1C [P-3102, 4-[4-[5-(4-methoxy-3-methyl-phenyl)-4-methyl-1H-imidazol-2-yl]-4-methyl-1-piperidyl]-6-methyl-7H-pyrrolo[2,3-d]pyrimidine] | 0.0001 to 1 µM | < 10000 nM
COc1cc(-c2cc3c(N4CCC(c5nc(C)c(-c6ccc(C)c(OC)c6)[nH]5)CC4)ncnc3[nH]2)ccn1 [P-3104, 4-[4-[5-(3-methoxy-4-methyl-phenyl)-4-methyl-1H-imidazol-2-yl]-1-piperidyl]-6-(2-methoxy-4-pyridyl)-7H-pyrrolo[2,3-d]pyrimidine] | 0.0001 to 1 µM | < 10000 nM
COc1cc(-c2[nH]c(C3(C)CCN(c4ncnc5[nH]c(C)cc45)CC3)nc2C)ccc1C [P-3105, 4-[4-[5-(3-methoxy-4-methyl-phenyl)-4-methyl-1H-imidazol-2-yl]-4-methyl-1-piperidyl]-6-methyl-7H-pyrrolo[2,3-d]pyrimidine] | 0.0001 to 1 µM | < 10000 nM
COc1cc(-c2[nH]c(C3CCN(c4ncnc5[nH]c(-c6ccc(C#N)cc6)cc45)CC3)nc2C)ccc1C [P-3106, 4-[4-[4-[5-(3-methoxy-4-methyl-phenyl)-4-methyl-1H-imidazol-2-yl]-1-piperidyl]-7H-pyrrolo[2,3-d]pyrimidin-6-yl]benzonitrile] | 0.0001 to 1 µM | < 10000 nM
Cc1nc(C2CCN(c3ncnc4[nH]c(-c5cnn(C(F)F)c5)cc34)CC2)[nH]c1-c1ccc(F)cc1 [P-3107, 6-[1-(difluoromethyl)pyrazol-4-yl]-4-[4-[5-(4-fluorophenyl)-4-methyl-1H-imidazol-2-yl]-1-piperidyl]-7H-pyrrolo[2,3-d]pyrimidine] | 0.0001 to 1 µM | < 10000 nM
COc1ccc(-c2[nH]c(C3CCN(c4ncnc5[nH]c(-c6cnn(C(F)F)c6)cc45)CC3)nc2C)cc1 [P-3108, 6-[1-(difluoromethyl)pyrazol-4-yl]-4-[4-[5-(4-methoxyphenyl)-4-methyl-1H-imidazol-2-yl]-1-piperidyl]-7H-pyrrolo[2,3-d]pyrimidine] | 0.0001 to 1 µM | < 10000 nM

From patent US9771369B2, “Compounds and methods for kinase modulation, and indications therefor” (Plexxikon Inc., priority 2014, dated 2017)
